Experiments:
[1] = test system: Croton Oil Inflamed Mouse Ear; test: Croton Oil Inflamed Mouse Ear Test (Topical treatment); type: in vivo, Adult male Cox ICR mice; conditions: 1% solution in ethanol, two doses, 4 h after croton oil, All values significant p 0.05
Method: Substituted phenylacetic acid amide compounds were tested for anti-inflammatory activity using the Croton Oil Inflamed Mouse Ear Test (Topical treatment).
Adult male Cox ICR mice, 25-35 g, were treated at about 3:00 PM on the left ear with 25 l of a 1% solution of the test compound in ethanol. They were placed in individual stainless steel cages where food and water was available ad libitum. The following morning around 8:00 AM the mice were dosed a second time on the same ear. One hour after the second dose, 25 l of 2% croton oil in acetone was applied to the left ear of the control and test groups.
Four hours after the croton oil treatment, the mice were sacrificed by cervical dislocation and both ears removed. A 5 mm punch biopsy was taken from each ear and weighed to the nearest 0.1 mg on a Cahn electrobalance.
The results were expressed as percent inhibition of the swelling response compared to the control group according to the formula:
(C-Ta..n)/C×100=Percent Inhibition
where C is the average difference between the left and right ear weights of the control group, and
Ta..n is the difference between left and right ear weights of animal (a..n) in a treated group.
Statistical tests for significance between groups were made using a one way analysis of variance of the ear weight differences.

[2] = Topical application to forearm of a human (Example VI); type: in vivo; conditions: 0.4 ml to 80 cm^2 of forearm, 60 kg human
Method: A composition for topical administration is prepared by combining the following ingredients:
N-oleyl-4-hydroxy-3-methoxyphenylacetamide, 4 g
The phenylacetamide is melted with slight warming and combined with the other ingredients.

[3] = Oral administration of soft gelatin capsules to a human (Example IV); type: in vivo; conditions: two capsules each containing 225 mg of the composition, 60 kg human
Method: (§1) A composition for oral administration is prepared by combining the following ingredients:
N-oleyl-4-hydroxy-3-methoxyphenylacetamide, 1.10 kg

[4] = Oral administration of syrup to an adult human (Example V); type: in vivo; conditions: one teaspoon of syrup, 70 kg adult human
Method: as §1
N-oleyl-4-hydroxy-3-methoxyphenylacetamide, 250 g
Propylene glycol, 1800 ml
Artificial Cherry flavor, 10 ml
The above ingredients are combined to produce a syrup and are packaged under sterile conditions in 6 oz. bottles.

[5] = test system: Carrageenan Rat Paw Edema; test: Carrageenan Rat Paw Edema Test (Oil Vehicle); type: in vivo, Male Sprague Dawley rats; conditions: 4 h after carrageenan, All values significant p 0.05
Method: Substituted phenylacetic acid amide compounds were tested for anti-inflammatory activity using the Carrageenan Rat Paw Edema Test (Oil Vehicle).
Male Sprague Dawley rats (Charles River Laboratories) were weighed and food fasted overnight. The animals were divided into four to six groups of six animals each according to body weights, average about 145 g, so that each group had about the same average weight (within 10 g).
The following morning five ml of water was dosed orally via stomach tube to each animal to facilitate paw swelling. The animals were dosed with the test compound and then placed in individual cages. The drug was dissolved in ethyl oleate: benzyl alcohol, 98:2, and delivered via stomach tube in 1 ml volume.
Paw volumes (0 time) were determined on both hind paws with a mercury displacement device equipped with a transducer and digitizer. […] Four hours after the carrageenan injection, the paw volumes are again determined.
The results are expressed as percent inhibition of the mean paw volume of the test group relative to the control group according to the formula: […]
Ta..n is the difference in paw swelling in the treated animals (a..n). Statistical differences are determined by one way analysis of variance.

Structure (SMILES): CCCCCCC(C)NC(=O)Cc1ccc(O)c(OC)c1 (stereo not drawn) [N-(2-octanyl-)-4-hydroxy-3-methoxyphenylacetamide]
- Percent Inhibition (of the swelling response compared to control) [1]: 48.1 +/- 15.8%

Structure (SMILES): C=CCCCCCCCCNC(=O)Cc1ccc(O)c(OC)c1 [N-9-decenyl-4-hydroxy-3-methoxyphenylacetamide]
- Percent Inhibition (of the swelling response compared to control) [1]: 98.9 +/- 11.9%

Structure (SMILES): CCCCCCCCCCCCCCCCCCNC(=O)Cc1ccc(O)c(OC)c1 [N-stearyl-4-hydroxy-3-methoxyphenylacetamide]
- Analgesia [2]: weaker analgesic effect
- Reduction of inflammation [2]: substantially similar reduction of inflammation

Structure (SMILES): CCCCCCCCNC(=O)Cc1ccc(O)c(OC)c1 [N-octyl-4-hydroxy-3-methoxyphenylacetamide]
- Percent Inhibition (of the swelling response compared to control) [1]: 89.1 +/- 15.7%

Structure (SMILES): CCCCCCCCCCNC(=O)Cc1ccc(O)c(OC)c1 [N-decyl-4-hydroxy-3-methoxyphenylacetamide]
- Percent Inhibition (of the swelling response compared to control) [1]: 58.1 +/- 29.4%

Structure (SMILES): CCCCCCCC(C)NC(=O)Cc1ccc(O)c(OC)c1 (stereo not drawn) [N-(2-nonanyl)-4-hydroxy-3-methoxyphenylacetamide]
- Percent Inhibition (of the swelling response compared to control) [1]: 55.6 +/- 26.5%

Structure (SMILES): C=C(CCCCCCCCC)CCCCCCCCNC(=O)Cc1ccc(O)c(OC)c1 [N-(9-methylene-1-octadecanyl-)-4-hydroxy-3-methoxyphenyl acetamide]
- Analgesia [3]: increased analgesic effect
- Reduction of inflammation [3]: substantially similar reduction of inflammation

Structure (SMILES): CCCCCCCNC(=O)Cc1ccc(O)c(OC)c1 [N-heptyl-4-hydroxy-3-methoxyphenylacetamide]
- Percent Inhibition (of the swelling response compared to control) [1]: 69.4 +/- 33.9%

Structure (SMILES): COc1cc(CC(=O)NC2CCCCCCC2)ccc1O [N-cyclooctyl-4-hydroxy-3-methoxyphenylacetamide]
- Analgesia [4]: weaker analgesic effect
- Reduction of inflammation [4]: substantially similar reduction of inflammation

Structure (SMILES): CCCCCCCCCNC(=O)Cc1ccc(O)c(OC)c1 [N-nonyl-4-hydroxy-3-methoxyphenylacetamide]
- Percent Inhibition (of the swelling response compared to control) [1]: 80.7 +/- 23.0%

Structure (SMILES): CCCCCCCC/C=C\CCCCCCCCNC(=O)Cc1ccc(O)c(OC)c1 [N-oleyl-4-hydroxy-3-methoxyphenylacetamide]
- Percent Inhibition (of mean paw volume relative to control) ([5]; 200 mg/kg oral in ethyl oleate: benzyl alcohol 98:2): 89.3 +/- 10.8%
- Percent Inhibition (of mean paw volume relative to control) ([5]; 400 mg/kg oral in ethyl oleate: benzyl alcohol 98:2): 95.6 +/- 11.2%
- Percent Inhibition (of the swelling response compared to control) [1]: 83.5 +/- 11.9%

Structure (SMILES): CCCCCCCCCCCCNC(=O)Cc1ccc(O)c(OC)c1 [N-dodecyl-4-hydroxy-3-methoxyphenylacetamide]
- Percent Inhibition (of the swelling response compared to control) [1]: 55.3 +/- 20.7%

Structure (SMILES): CCCCCCCCNC(=O)C(C)c1ccc(O)c(OC)c1 (stereo not drawn) [N-octyl-4-hydroxy-3-methoxyphenyl-2-methyl-acetamide]
- Percent Inhibition (of the swelling response compared to control) [1]: 88.9 +/- 24.1%

Source: US5013759A, “Compounds and compositions having anti-inflammatory and analgesic activity” (The Procter & Gamble Company, priority 1990, dated 1991)
